The values that follow come from patent US9676715B2, “Bis-indolic derivatives, a process for preparing the same and their uses as a drug” (UNIVERSITE JOSEPH FOURIER, priority 2011, dated 2017).

A word on the inhibition: it is the share of the control response that was lost under treatment. As usually defined, the melting point is the temperature of the solid-liquid transition. Broadly, the MIC is the lowest concentration found to suppress growth.

One data set deals with S. aureus. Particulars: penicillin M compounds; cited from earlier work.
In data set [1] the test system is MRC5 (human lung fibroblast). The data set can be described thus: In vitro cytotoxicity. Type of data set: cell-based. Particulars: read-out: % of cellular growth inhibition. As for the experimental part: (§1) In vitro cytotoxicity was assayed on three cell lines—KB (human mouth carcinoma), MCR5 (human lung fibroblast) and HCT116 (human colon tumor). Results are presented in table IV as % of cellular growth inhibition in presence of 10^−5 M and 10^−6 M of the tested bis-indolic derivatives.

The subject of data set [2] is HCT116 (human colon tumor). The data set can be described thus: In vitro cytotoxicity. The class given is cell-based. The conditions noted are these: read-out: % of cellular growth inhibition. On the procedure:
as §1

Data set [3] relates to KB (human mouth carcinoma). The experiment in a line: In vitro cytotoxicity. The class given is cell-based. Particulars: read-out: % of cellular growth inhibition. On the procedure:
as §1

For data set [4], the system named is Staphylococcus aureus 1199B (overexpression of the NorA efflux pump). The experiment in a line: Efflux pump inhibition assay with sub-inhibitory ciprofloxacin. The class given is cell-based. The conditions noted are these: S. aureus 1199B. As for the experimental part:
(§2) The efflux pump inhibition potential of the bis-indolic derivatives was tested using two steps.
(§3) The following experimental protocol was used: indolic derivatives (initially solubilised in DMSO at 10 mg/mL) were dispensed in a 96-wells microplate by two fold serial dilutions in Muller-Hinton medium (MH, Bio Rad) using a Biomek 2000 (Beckman) handling robot. 100 μL of the bacterial inoculum (an overnight culture at 37° C. in 5 mL MH diluted 100-fold) was then added in each well. The total volume was 200 μL in each well and the final bacteria concentration 10^6 CFU/mL (CFU: colony forming unit). The highest final indolic derivative concentration was 128 mg/L. Growth was assayed with a microplate reader by monitoring absorption at 620 nm after 1, 2, 5, 7 and 24 h incubation at 37° C. In addition, the plates were read visually after 24 hours incubation. Cultures containing 5 μL DMSO were used as growth controls. In addition, two controls containing a sub-inhibitory or a inhibitory antibiotic concentration for the tested strain were performed. The antibiotics used were ampicillin (0.5 and 32 μg/mL) for E. coli, kanamycin (0.5 and 16 μg/mL) for S. aureus ATCC 25923, ciprofloxacin (4 and 64 mg/L) for S. aureus 1199B, ciprofloxacin (0.5 and 2 mg/L) for S. aureus K2378. All experiments were performed in duplicate.
(§4) Efflux pump inhibition assays were then performed against resistant Staphylococcus aureus strains SA 1199B and SA K2378 for bis-indolic derivatives. […] The minimal inhibitory concentration (MIC) of the bis-indolic compound allowing a complete inhibition of the bacterial growth in the presence of ciprofloxacin was determined.

The test system of data set [5] is Staphylococcus aureus K2378 (overexpresses the efflux pump NorA from a multicopy plasmid). The description is as above. Type of data set: cell-based. The conditions noted are these: S. aureus K2378; in the presence of ciprofloxacin 0.5 mg/L. On the procedure:
as §2, §3, §4

Data set [6] deals with S. epidermidis CIP 103627. The experiment in a line: MIC, microdilution method (9.1). The class given is cell-based, Staphylococcus epidermidis. Particulars: Staphylococcus epidermidis, CIP103627, read after 18 h, read-out: MIC. Put shortly: (§5)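 Using CLSI M07-A8 broth microdilution, MH broth, 37° C. in air; inoculum 5×10^5 CFU/ml; drug range 0.50-128 mg/L final.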
Data set [7] deals with S. epidermidis ATCC 12228. The data set can be described thus: MIC, microdilution method (9.1). The conditions noted are these: Staphylococcus epidermidis, ATCC12228, read after 18 h, read-out: MIC. The class given is cell-based, Staphylococcus epidermidis. Summed up: as §5
The subject of the next data set is S. epidermidis CIP 81.55. The experiment in a line: MIC, microdilution method (9.1). The class given is cell-based, Staphylococcus epidermidis. Particulars: Staphylococcus epidermidis, CIP81, read after 18 h, read-out: MIC. Summed up: as §5
In a further data set the test system is S. aureus ATCC 29213. The experiment in a line: MIC, microdilution method (9.1). The class given is cell-based, Staphylococcus aureus. The conditions noted are these: Staphylococcus aureus, ATCC29213, read after 18 h, read-out: MIC. Summed up:
as §5
(Broth dilution looks for growth in wells or tubes with falling amounts of substance.)

A further data set concerns S. aureus CIP 103428. The data set can be described thus: MIC, microdilution method (9.1). The class given is cell-based, Staphylococcus aureus. Particulars: Staphylococcus aureus, CIP103428, read after 18 h, read-out: MIC. Put shortly:
as §5

Data set [8] concerns S. aureus ATCC 106414 (VISA). The experiment in a line: MIC, microdilution method (9.1). The conditions noted are these: Staphylococcus aureus, read after 18 h, read-out: MIC. The class given is cell-based, Staphylococcus aureus. Put shortly:
as §5

The test system of data set [9] is S. aureus ATCC 33592 (MRSA). The data set can be described thus: MIC, microdilution method (9.1). The class given is cell-based, Staphylococcus aureus. Particulars: Staphylococcus aureus, read after 18 h, read-out: MIC. Put shortly: as §5
The next data set concerns S. aureus ATCC 6538. The data set can be described thus: MIC, microdilution method (9.1). Type of data set: cell-based, Staphylococcus aureus. Particulars: Staphylococcus aureus, ATCC6538, read after 18 h, read-out: MIC. Put shortly:
as §5

The subject of data set [10] is S. aureus CIP 65.25 (MRSA). The data set can be described thus: MIC, microdilution method (9.1). The class given is cell-based, Staphylococcus aureus. Particulars: Staphylococcus aureus, read after 18 h, read-out: MIC. Put shortly:
as §5

Another data set has as its system S. aureus SA-1199B. The data set can be described thus: MIC, microdilution method (9.1). Type of data set: cell-based, Staphylococcus aureus. Particulars: Staphylococcus aureus, SA1199B, 18 h. Summed up: as §5
For a further data set, the system named is S. aureus CIP 65.6. The experiment in a line: MIC, microdilution method (9.1). Type of data set: cell-based, Staphylococcus aureus. Particulars: Staphylococcus aureus, CIP65, read after 18 h, read-out: MIC. Summed up: as §5
The test system of the next data set is S. aureus ATCC 25923. The experiment in a line: MIC, microdilution method (9.1). Type of data set: cell-based, Staphylococcus aureus. The conditions noted are these: Staphylococcus aureus, ATCC25923, read after 18 h, read-out: MIC. Put shortly:
as §5

The next data set concerns S. aureus ATCC 9144. The data set can be described thus: MIC, microdilution method (9.1). The class given is cell-based, Staphylococcus aureus. Particulars: Staphylococcus aureus, ATCC9144, read after 18 h, read-out: MIC. Put shortly:
as §5

`Cc1onc(-c2ccccc2)c1C(=O)N[C@@H]1C(=O)N2[C@@H]1SC(C)(C)[C@@H]2C(=O)O` [oxacillin]: the mutation frequency in the data set with S. aureus is ~10^−9.
Take `COc1cccc(OC)c1C(=O)N[C@@H]1C(=O)N2[C@@H]1SC(C)(C)[C@@H]2C(=O)O` [methicillin]: the mutation frequency in the data set on S. aureus is ~10^−9.
In the case of `O=C(NC(C(=O)O)c1c[nH]c2ccc(Br)cc12)c1c[nH]c2ccc(Br)cc12` (stereo not shown) [Compound 12, 2-(5-Bromo-1H-indol-3-yl)-2-(5-bromo-1H-indole-3-carboxamido) acetic acid], the melting point turned out to be 195 °C. For the same molecule, in data set [1] (10^−5 M), the inhibition at 10 µM stood at 3 ± 3%. Moreover, the inhibition at 1 µM in data set [1] (10^−6 M) was 3%. In addition, the inhibition at 10 µM in [2] (HCT-116, 10^−5 M) stood at 0%. In addition, the inhibition at 1 µM in [2] (HCT-116, 10^−6 M) turned out to be 0%. The inhibition at 10 µM in [3] (10^−5 M) stood at 0%. The inhibition at 1 µM in data set [3] (10^−6 M) stood at 0%. Also, the “MIC, mg/L (Ciprofloxacin concentration, mg/L)” value (shortened to “MIC, mg/L”) in [4] (in the presence of ciprofloxacin 2 mg/L) is 32 (2) mg/L. The “MIC, mg/L” value in [4] (in the presence of ciprofloxacin 4 mg/L) is 64 (4) mg/L. The “MIC, mg/L” value in [5] was 64 (0.5) mg/L. The MIC in [6] was greater than 32 µg/mL. The MIC in [7] was greater than 32 µg/mL. In addition, the MIC with S. epidermidis CIP 81.55 was greater than 32 µg/mL. For the same molecule, the MIC in the data set on S. aureus ATCC 29213 is greater than 32 µg/mL. The MIC in the data set on S. aureus CIP 103428 is greater than 32 µg/mL. Moreover, the MIC in data set [8] is greater than 32 µg/mL. The MIC in data set [9] was greater than 32 µg/mL. Further, in the data set with S. aureus ATCC 6538, the MIC was greater than 32 µg/mL. Besides, the MIC in [10] is greater than 32 µg/mL. The MIC against S. aureus SA-1199B was greater than 32 µg/mL. In addition, in the data set on S. aureus CIP 65.6, the MIC is greater than 32 µg/mL. The MIC with S. aureus ATCC 25923 was greater than 32 µg/mL. The MIC in the data set on S. aureus ATCC 9144 was greater than 32 µg/mL.
